Laboratory results published in patent publication US8404696B2, “Quinazoline-2,4-dione derivative, and medical compositions for the prophylaxis and treatment of cranial nerve disease containing the same” (Shin Poong Pharmaceutical Co., Ltd., priority 2008, dated 2013).
Values after ≈ are worked out from the molar mass of the structure shown.

Assays:
mouse brain cells = test: Inhibitory effect on ROS production in brain cells (DCF-DA, NMDA-induced); format: cell-based
[1] = tested on: middle cerebral artery occlusion (MCAO) model; test: Anti-stroke effect in middle cerebral artery occlusion (MCAO) model, oral administration before inducing stroke; format: in vivo, rats of SD species; conditions: 100 mg/kg po; for Infarcted volume (Mean ± standard deviation): negative control 0.45 ± 0.03
[2] = tested on: middle cerebral artery occlusion (MCAO) model; test: Anti-stroke effect in MCAO model, intravenous administration around reperfusion; format: in vivo, rats of SD species; conditions: 5 mg/kg iv; for Infarcted volume (Mean ± standard deviation): negative control 0.43 ± 0.02
Description: Male rats of SD species with 290-300 g of body weight were used as laboratory animals, and 8 rats were used in each experiment group. The operation was performed by using the method of Nagasawa et al. (Nagasawa, H. and Gogure, K. 1989, Stroke, 20: 1037-1043).
The rats were anesthetized by Ketamine, and the operation was performed as body temperature was maintained using thermoplate. The cerebral region was incised following the median line of the neck, and the left common carotid artery, internal carotid artery and external carotid artery were separated, taking care not to damage the vagus nerve. The common carotid artery and external carotid artery were ligatured, and a probe was inserted into the internal carotid artery from the branch point of the internal and external carotid arteries. And then the fundus of the middle cerebral artery was occluded by ligature just on the upper side of the insertion region. A probe was made by heating the end of a 4-0 nylon surgical suture (Dafilon, B. Braun, Germany) and cut into 30 mm. The 7-9 mm end of the probe was coated with the mixture of silcon (Xantopren VL plus, Heraeus Kulzer, Germany) and curing agent (Optosyl-Xantopren VL plus, Heraeus Kulzer, Germany), and the thickness was to be 0.3-0.4 mm. After the intervention of the probe insertion and the animals came out of the anesthetic, individuals in which neurological deficit symptom (right direction circling) was observed were included in the ischemia group.
After 3 hours of ischemia, the inserted probe was removed to reperfuse blood circulation. The brain was extracted after 24 hours, followed by histological staining.
The compound 3 was administered at a programmed time before or after insertion of the probe with oral or intravenous administration. TTC (2,3,5-triphenyltetrazolium chloride) staining was performed to estimate the damage of brain tissue by ischemia. Procephalon of the extracted brain was sliced into 2 mm of sequential slice by using brain matrix (ASI instrument, Warren, Mich., USA). The slices were put into 2% of TTC solution and incubated at 37° C. for 60 minutes for staining. The TTC stained brain slice was fixed in 10% of formalin buffer and the front of the each slice was photographed with a digital camera. The infarcted areas (cm^2) that were not stained with deep red in each acquired image were measured using an image analyzer, and total infarcted volume (cm^3) was calculated by multiplying the thickness of the slices
In the experiment, the probe was removed after stoke induction so that circulation was reperfused.

[3] = tested on: superoxide dismutase (SOD); test: Increase of superoxide dismutase (SOD) activity in mouse brain cells; format: cell-based; conditions: 100 μg/ml
Description: ROS inhibitory effect of compounds was represented to the dose suppressing 50% of production of reactive oxygen compared to control. […] The activity of superoxide dismutase (SOD) was measured by using a kit acquired in Sigma.

[4] = tested on: pentylentetrazole (PTZ)-induced convulsion; test: Anti-convulsant effect, pentylentetrazole (PTZ) test; format: in vivo; conditions: 10 mg/kg intraperitoneally, PTZ 80 mg/kg subcutaneously
Procedure, shortened: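 Compound was given intraperitoneally at 10 mg/kg before PTZ challenge. The read-outs were time to convulsion onset, time until convulsions fully disappeared, and mortality.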

[5] = tested on: mixed culture of nerve cells-glial cells; test: Protecting effect on NMDA-induced nerve cell death (LDH release); format: cell-based, ICR mouse; conditions: 100 μM NMDA, LDH release after 24 hours
Procedure, shortened: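 Embryonic day-14 ICR mouse cortical neurons seeded on cortical glia, Ara-C-treated, then exposed at day 12–15 for 20 min to 100 μM NMDA with compound at 1 or 2 μg/mL. LDH released 24 h later measured colorimetrically as a cell-death index.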

[6] = treatment time 0 (right before inducing ischemic stroke)
[7] = treatment time 1 (an hour before inducing ischemic stroke)
[8] = treatment time 0.5 after reperfusion
[9] = treatment time 1 after reperfusion
[10] = treatment time 2 after reperfusion
[11] = treatment time 4 after reperfusion
[12] = treatment time 6 after reperfusion
[13] = treatment time 12 (hours) after reperfusion
[14] = treatment time 18 after reperfusion
[15] = treatment time 24 after reperfusion
[16] = treatment time −0.5 after reperfusion

## CC(=O)N(CCCCNCCCn1c(=O)[nH]c2ccccc2c1=O)CCCn1c(=O)[nH]c2ccccc2c1=O [Compound 3, N-[3-(2,4-dioxo-1,4-dihydro-2H-quinazolin-3-yl)propyl]-N-{4-[3-(2,4-dioxo-1,4-dihydro-2H-quinazolin-3-yl)propylamino]butyl}acetamide]
Mouse brain cells; 125 μg/ml and 250 μg/ml, 300 μM NMDA, 24 hours, FIG. 2
  Suppression of oxidative stress induced by NMDA (DCF fluorescence): suppressed the oxidative stress induced by NMDA of nerve cells in a dose-dependent manner
Mouse brain cells; 24 h, dose suppressing 50% of production of reactive oxygen compared to control, mouse brain cells, read-out: ROS inhibitory effect ID50
  IC50: 108 ± 27.2 µg/mL (≈ 203 µM)
[1]; [6]
  Inhibitory percentage compared to negative control: 69.8%
  Infarcted volume (Mean ± standard deviation): 0.14 ± 0.02 cm^3
[1]; [7]
  Inhibitory percentage compared to negative control: 22.3%
  Infarcted volume (Mean ± standard deviation): 0.35 ± 0.07 cm^3
[2]; [8]
  Inhibitory percentage compared to negative control: 72.3%
  Infarcted volume (Mean ± standard deviation): 0.12 ± 0.03 cm^3
[2]; [9]
  Inhibitory percentage compared to negative control: 53.8%
  Infarcted volume (Mean ± standard deviation): 0.20 ± 0.04 cm^3
[2]; [10]
  Inhibitory percentage compared to negative control: 49.9%
  Infarcted volume (Mean ± standard deviation): 0.22 ± 0.02 cm^3
[2]; [11]
  Inhibitory percentage compared to negative control: 47.9%
  Infarcted volume (Mean ± standard deviation): 0.22 ± 0.09 cm^3
[2]; [12]
  Inhibitory percentage compared to negative control: 60.9%
  Infarcted volume (Mean ± standard deviation): 0.17 ± 0.04 cm^3
[2]; [13]
  Inhibitory percentage compared to negative control: 62.7%
  Infarcted volume (Mean ± standard deviation): 0.16 ± 0.04 cm^3
[2]; [14]
  Inhibitory percentage compared to negative control: 13.5%
  Infarcted volume (Mean ± standard deviation): 0.37 ± 0.03 cm^3
[2]; [15]
  Inhibitory percentage compared to negative control: 16.3%
  Infarcted volume (Mean ± standard deviation): 0.36 ± 0.08 cm^3
[2]; [16]
  Inhibitory percentage compared to negative control: 67.2%
  Infarcted volume (Mean ± standard deviation): 0.14 ± 0.03 cm^3
[3]
  Increase of SOD activity, compared to control: 3.2 ± 2.7
[4]; (animals/total), negative control 70(17/23)
  mortality rate: 17(2/12) %
[4]; (animals/total), negative control 100(23/23)
  Induction percentage of convulsion: 50(6/12) %
[4]; negative control 5.0 ± 0.7
  Initiation time of convulsion: 34.7 ± 7.7 min
[4]; negative control 46.7 ± 3.3
  Duration of convulsion: 11.8 ± 5.6 min
[5]; 1 μg/ml compound
  Inhibitory effect of cell death by NMDA-induced excitable neurotoxicity: 45.5%
[5]; 2 μg/ml compound
  Inhibitory effect of cell death by NMDA-induced excitable neurotoxicity: 54.4%
